# Assay results taken from patent US20210392890A1, “COMPOSITIONS COMPRISING PYRIDINE CARBOXYLATE HERBICIDES AND PLANT GROWTH REGULATORS” (Corteva Agriscience LLC, priority 2018, published 2021).
# Several values for one entry are separate records, joined by “and”; a condition that tells them apart may be missing. Identical values can stand only once.
# Experiments:
# Format in all cases: in vivo
# [1] = tested on: Viola tricolor (wild pansy); assay: Greenhouse postemergence herbicidal effect on VIOTR
# Description: (§1) Seeds of the desired test plant species were planted in a 90:10% v/v (volume/volume) mixture of PRO-MIX® BX (Premier Tech Horticulture, Quakertown, Pa., USA) and PROFILE® GREENS GRADE™ (Profile Products LLC, Buffalo Grove, Ill., USA) planting mixture, which typically has a pH of 5.2 to 6.2 and an organic matter content of at least 50 percent, in plastic pots with a surface area of 103.2 square centimeters (cm^2). In some aspects, to help ensure good germination and healthy plants, a fungicide treatment and/or other chemical or physical treatment was applied. The plants were grown for 7-36 days (d) in a greenhouse with an approximate 14-hour (h) photoperiod which was maintained at about 23° C. during the day and 22° C. during the night. Nutrients and water were added on a regular basis and supplemental lighting was provided with overhead metal halide 1000-Watt lamps as necessary. The plants were employed for testing when they reached the second or third true leaf stage.
# (§2) Emulsifiable concentrates of each of each pyridine carboxylate herbicide (Compound A or Compound B) were prepared at 100 grams acid equivalent per liter (g ae/L). The emulsifiable concentrates also included a safener, cloquintocet-mexyl, at 120 grams active ingredient per liter (g ai/L). An aliquot of each emulsifiable concentrate was placed in a 25 mL glass vial and diluted with an aqueous mixture of 1.25% (v/v) ACTIROB® B esterified rapeseed oil (Bayer Crop Science, Research Triangle Park, N.C., USA) or MSO® Concentrate with LECI-TECH® methylated soybean oil (Loveland Products, Loveland, Colo., USA) to obtain concentrated stock solutions at the highest application rate for each herbicide, based upon a 12 milliliter (mL) application volume at a rate of 187 liters per hectare (L/ha). The concentrated stock solutions were further diluted with an aqueous mixture of 1.25% v/v ACTIROB® B or MSO® Concentrate with LECI-TECH® to obtain stock solutions at reduced application rates for each herbicide. Spray solutions of the herbicide combinations (Compound A or Compound B plus the PGR) were prepared by adding weighed amounts or aliquots of the PGR to the stock solutions of Compound A or Compound B to form 12-mL spray solutions in two-way combinations.
# (§3) The spray solutions were applied to the plant material with an overhead Mandel track sprayer equipped with 8002E nozzles calibrated to deliver 187 L/ha over an application area of 0.503 square meters (m^2) at a spray height of 18 inches (43 centimeters (cm)) above the average plant canopy. Control plants were sprayed in the same manner with the solvent blank. All pyridine carboxylate herbicide (component a) application rates are given as “g ae/ha” and all PGR (component b) application rates are given as “g ai/ha.”
# (§4) The treated plants and control plants were placed in a greenhouse as described above and watered by sub-irrigation to prevent wash-off of the test compounds. After 20-22 d, the condition of the test plants as compared with that of the control plants was determined visually and scored on a scale of 0 to 100 percent where 0 corresponds to no injury and 100 corresponds to complete kill.
# [2] = tested on: Polygonum convolvulus (wild buckwheat); assay: Greenhouse postemergence herbicidal effect on POLCO
# Description: as §1, §2, §3, §4
# [3] = tested on: Cirsium arvense (Canada thistle); assay: Greenhouse postemergence herbicidal effect on CIRAR
# Description: as §1, §2, §3, §4
# Glycine max (soybean) = assay: Greenhouse postemergence herbicidal effect on GLXMA
# Description: as §1, §2, §3, §4
# [4] = tested on: Ipomoea hederacea (ivyleaf morningglory); assay: Greenhouse postemergence herbicidal effect on IPOHE
# Description: as §1
# (§5) Emulsifiable concentrates of each of each pyridine carboxylate herbicide (Compound A or Compound B) were prepared at 100 grams acid equivalent per liter (g ae/L). The emulsifiable concentrates also included a safener, cloquintocet-mexyl, at 120 grams active ingredient per liter (g ai/L). […]
# as §4
# [5] = tested on: Amaranthus retroflexus (pigweed); assay: Greenhouse postemergence herbicidal effect on AMARE
# Description: as §1, §2, §3, §4
# [6] = tested on: Helianthus annuus (common sunflower); assay: Greenhouse postemergence herbicidal effect on HELAN
# Description: as §1, §2, §3, §4
# Kochia scoparia (kochia) = assay: Greenhouse postemergence herbicidal effect on KCHSC
# Description: as §1, §2, §3, §4
# [7] = tested on: Stellaria media (chickweed); assay: Greenhouse postemergence herbicidal effect on STEME
# Description: as §1, §2, §3, §4
# [8] = tested on: Brassica napus (spring rape); assay: Greenhouse postemergence herbicidal effect on BRSNN
# Description: as §1, §2, §3, §4
# [9] = tested on: Setaria faberi (giant foxtail); assay: Greenhouse postemergence herbicidal effect on SETFA
# Description: as §1, §2, §3, §4
# [10] = tested on: Chenopodium album L. (common lambsquarters); assay: Greenhouse postemergence herbicidal effect on CHEAL
# Description: as §1, §2, §3, §4
# [11] = tested on: Abutilon theophrasti (velvetleaf); assay: Greenhouse postemergence herbicidal effect on ABUTH
# Description: as §1, §2, §3, §4
# [12] = tested on: Euphorbia heterophylla (poinsettia); assay: Greenhouse postemergence herbicidal effect on EPHHL
# Description: as §1, §2, §3, §4
# [13] = tested on: Sorghum vulgare (grain sorghum); conditions: Compound A 0 g/ha, Ethephon 140 g/ha
# Description: as §1, §2, §3, §4
# Zea mays (maize) = conditions: Compound A 0 g/ha, Ethephon 140 g/ha
# Description: as §1, §2, §3, §4
# [14] = tested on: Cyperus esculentus (yellow nutsedge); assay: Greenhouse postemergence herbicidal effect on CYPES; conditions: Compound A 0 g/ha, Ethephon 140 g/ha
# Description: as §1, §5
# as §4, with “kill. […]” for “kill.”
# [15] = tested on: Digitaria sanguinalis (large crabgrass); assay: Greenhouse postemergence herbicidal effect on DIGSA; conditions: Compound A 0 g/ha, Ethephon 140 g/ha
# Description: as §1, §5
# as §4, with “kill. […]” for “kill.”
# [16] = tested on: Echinochloa crus-galli (barnyard grass); assay: Greenhouse postemergence herbicidal effect on ECHCG; conditions: Compound A 0 g/ha, Ethephon 140 g/ha
# Description: as §1, §5
# as §4, with “kill. […]” for “kill.”
# [17] = tested on: Rumex obtusifolia (broadleaf dock); assay: Greenhouse postemergence herbicidal effect on RUMOB; conditions: Compound A 0 g/ha, Ethephon 140 g/ha
# Description: as §1, §5
# as §4, with “kill. […]” for “kill.”
# rice (ORYSA) = conditions: Compound A 0 g/ha, Ethephon 140 g/ha
# Description: as §1, §5
# as §4, with “kill. […]” for “kill.”
# [18] = Compound A 0 g/ha, Ethephon 140 g/ha
smiles,measurement,setting,value
"C[N+](C)(C)CCCl.[Cl-] [Chlormequat, Chlormequat chloride, reference compound]",% visual injury Obs,[1]; PGR 560 g ai/ha alone,0% and 3%
same,% visual injury Obs,[2]; PGR 560 g ai/ha alone,0% and 5%
same,% visual injury Obs,[3]; PGR 560 g ai/ha alone,0%
same,% visual injury Obs,Glycine max (soybean); PGR 560 g ai/ha alone,10%
same,% visual injury Obs,[4]; PGR 560 g ai/ha alone,0%
same,% visual injury Obs,[5]; PGR 560 g ai/ha alone,0%
same,% visual injury Obs,[6]; PGR 560 g ai/ha alone,0%
same,% visual injury Obs,Kochia scoparia (kochia); PGR 560 g ai/ha alone,0%
same,% visual injury Obs,[7]; PGR 560 g ai/ha alone,0%
same,% visual injury Obs,[8]; PGR 560 g ai/ha alone,0%
same,% visual injury Obs,[9]; PGR 560 g ai/ha alone,0%
same,% visual injury Obs,[10]; PGR 560 g ai/ha alone,0%
"C#CCOC(=O)c1nc(-c2ccc3cc[nH]c3c2F)c(F)c(N)c1Cl [Compound B, propargyl 4-amino-3-chloro-5-fluoro-6-(7-fluoro-1H-indol-6-yl)pyridine-2-carboxylate]",% visual injury Obs,[1]; herbicide 7.5 g ae/ha alone,10%
same,% visual injury Obs,[1]; herbicide 10 g ae/ha alone,40%
same,% visual injury Obs,[11]; herbicide 7.5 g ae/ha alone,68%
same,% visual injury Obs,[11]; herbicide 10 g ae/ha alone,68%
same,% visual injury Obs,[2]; herbicide 7.5 g ae/ha alone,73%
same,% visual injury Obs,[2]; herbicide 10 g ae/ha alone,80%
same,% visual injury Obs,[12]; herbicide 7.5 g ae/ha alone,83%
same,% visual injury Obs,[12]; herbicide 10 g ae/ha alone,99%
same,% visual injury Obs,[3]; herbicide 7.5 g ae/ha alone,45%
same,% visual injury Obs,[3]; herbicide 10 g ae/ha alone,45%
same,% visual injury Obs,[6]; herbicide 7.5 g ae/ha alone,85%
same,% visual injury Obs,[6]; herbicide 10 g ae/ha alone,100%
same,% visual injury Obs,Kochia scoparia (kochia); herbicide 7.5 g ae/ha alone,68%
same,% visual injury Obs,Kochia scoparia (kochia); herbicide 10 g ae/ha alone,80%
same,% visual injury Obs,[7]; herbicide 7.5 g ae/ha alone,10%
same,% visual injury Obs,[7]; herbicide 10 g ae/ha alone,93%
same,% visual injury Obs,[8]; herbicide 7.5 g ae/ha alone,68%
same,% visual injury Obs,[8]; herbicide 10 g ae/ha alone,85%
same,% visual injury Obs,[9]; herbicide 7.5 g ae/ha alone,70%
same,% visual injury Obs,[9]; herbicide 10 g ae/ha alone,55%
same,% visual injury Obs,[10]; herbicide 7.5 g ae/ha alone,85%
same,% visual injury Obs,[10]; herbicide 10 g ae/ha alone,90%
"O=P(O)(O)CCCl [Ethephon, reference compound]",Herbicidal Effects (% visual injury) VIOTR Obs,[1]; [18],0%
same,Herbicidal Effects (% visual injury) ABUTH Obs,[11]; [18],0%
same,Herbicidal Effects (% visual injury) POLCO Obs,[2]; [18],0%
same,Herbicidal Effects (% visual injury) EPHHL Obs,[12]; [18],0%
same,Herbicidal Effects (% visual injury) CIRAR Obs,[3]; [18],0%
same,Herbicidal Effects (% visual injury) AMARE Obs,[5]; [18],0%
same,Herbicidal Effects (% visual injury) HELAN Obs,[6]; [18],0%
same,Herbicidal Effects (% visual injury) KCHSC Obs,Kochia scoparia (kochia); [18],0%
same,Herbicidal Effects (% visual injury) SORVU Obs,[13],0%
same,Herbicidal Effects (% visual injury) ZEAMX Obs,Zea mays (maize),0%
same,Herbicidal Effects (% visual injury) STEME Obs,[7]; [18],0%
same,Herbicidal Effects (% visual injury) BRSNN Obs,[8]; [18],0%
same,Herbicidal Effects (% visual injury) SETFA Obs,[9]; [18],0%
same,Herbicidal Effects (% visual injury) CHEAL Obs,[10]; [18],0%
same,Herbicidal Effects (% visual injury) CYPES Obs,[14],0%
same,Herbicidal Effects (% visual injury) DIGSA Obs,[15],0%
same,Herbicidal Effects (% visual injury) ECHCG Obs,[16],0%
same,Herbicidal Effects (% visual injury) RUMOB Obs,[17],0%
same,Herbicidal Effects (% visual injury) ORYSA Obs,rice (ORYSA),0%
"O=C(O)Cc1c[nH]c2ccccc12 [IAA, indol-3-ylacetic acid, reference compound]",% visual injury Obs,[1]; PGR 140 g ai/ha alone,0%
same,% visual injury Obs,[11]; PGR 140 g ai/ha alone,0%
same,% visual injury Obs,[2]; PGR 140 g ai/ha alone,0%
same,% visual injury Obs,[3]; PGR 140 g ai/ha alone,0%
same,% visual injury Obs,Glycine max (soybean); PGR 140 g ai/ha alone,0%
same,% visual injury Obs,[4]; PGR 140 g ai/ha alone,0%
same,% visual injury Obs,[5]; PGR 140 g ai/ha alone,0%
same,% visual injury Obs,[6]; PGR 140 g ai/ha alone,0%
same,% visual injury Obs,Kochia scoparia (kochia); PGR 140 g ai/ha alone,0%
same,% visual injury Obs,[7]; PGR 140 g ai/ha alone,5%
same,% visual injury Obs,[8]; PGR 140 g ai/ha alone,0%
same,% visual injury Obs,[9]; PGR 140 g ai/ha alone,0%
"O=C(O)CCCc1c[nH]c2ccccc12 [IBA, indol-3-butyric acid, reference compound]",% visual injury Obs,[1]; PGR 140 g ai/ha alone,3%
same,% visual injury Obs,[11]; PGR 140 g ai/ha alone,0%
same,% visual injury Obs,[2]; PGR 140 g ai/ha alone,0%
same,% visual injury Obs,[3]; PGR 140 g ai/ha alone,0%
same,% visual injury Obs,Glycine max (soybean); PGR 140 g ai/ha alone,0%
same,% visual injury Obs,[4]; PGR 140 g ai/ha alone,0%
same,% visual injury Obs,[5]; PGR 140 g ai/ha alone,0%
same,% visual injury Obs,[6]; PGR 140 g ai/ha alone,0%
same,% visual injury Obs,Kochia scoparia (kochia); PGR 140 g ai/ha alone,0%
same,% visual injury Obs,[7]; PGR 140 g ai/ha alone,8%
same,% visual injury Obs,[8]; PGR 140 g ai/ha alone,0%
same,% visual injury Obs,[9]; PGR 140 g ai/ha alone,5%
